In patent US20240315952A1, “PERSONAL CARE COMPOSITION” (Conopco, Inc., d/b/a UNILEVER, priority 2020, published 2024):

System: IL-1α
Test: IL-1α expression in EpiKutis living skin equivalent (LSE) stressed with 1% SQOOH, human immunoassay kit
Assay type: cell-based
Settings: levels are raw material wt %; for IL-1α level: EpiKutis 3D reconstructed human epidermis, sample applied topically, then 3 μL of 1% SQOOH, after 72 hours; for Inhibition: inhibition of IL-1α vs 1% SQOOH control, EpiKutis LSE, 72 hours
Procedure: EpiKutis® living skin equivalent (LSE), is a 3D reconstructed human epidermis model with Chinese human keratinocytes through air-liquid interface culture in a defined serum free medium, supplied by supplied by Biocell (Xi'an, China). Squalene monohydroperoxide (SQOOH), a stress surrogate, was prepared in house, by subjecting squalene to solar irradiation in the presence of a sensitizer.
The SQOOH was diluted using squalene. The moringa oil was dissolved in DMSO (dimethyl sulfoxide) at a concentration of 100 mM to form a stock solution. The samples in Table 1 were prepared accordingly by diluting the materials except moringa oil and/or stock solution with PBS (phosphate-buffered saline) to the desired levels as indicated in Table 1 before use for further experiment.
The sample was applied topically to the LSE followed by application of 3 μL of 1% SQOOH. The medium was then refreshed with interval of 24 hours. After 72 hours, the tissues were collected for histology and to test the extent of viability. The IL-1a expression was evaluated using a human immunoassay kit from R&D systems (Cat. DLA 50) and tested following the manufacturer's instructions.

Structure (SMILES)	IL-1α level	Inhibition
NC(=O)c1cccnc1 [Sample 6, Niacinamide]	5.8 ± 0.60 pg/mL	33.57%
NC(=O)c1cccnc1 [Sample 5, Niacinamide]	6.6 ± 0.63 pg/mL	25.33%
